Assay: xn = mol fraction of the nth substance listed
Settings: 101 kPa

CCC[N+]1(C)CCCC1.O=S(=O)([N-]S(=O)(=O)C(F)(F)F)C(F)(F)F + CCCCCCCCCCCCCC[P+](CCCCCC)(CCCCCC)CCCCCC.O=S(=O)([N-]S(=O)(=O)C(F)(F)F)C(F)(F)F
Settings | electrical conductivity, 293.15 K [S/m] | electrical conductivity, 313.15 K [S/m] | electrical conductivity, 333.15 K [S/m] | electrical conductivity, 353.15 K [S/m] | viscosity, 293.15 K [mPa·s] | viscosity, 313.15 K [mPa·s] | viscosity, 333.15 K [mPa·s] | viscosity, 353.15 K [mPa·s]
x2 = 0 | 0.32 | 0.678 | 1.18 | 1.76 | – | 34.5 | 18.8 | 11.6
x2 = 0.5 | 0.0216 | 0.0565 | 0.12 | 0.223 | 322 | 117 | 51.8 | 26.7
x2 = 0.75 | 0.0113 | – | 0.0688 | 0.146 | 368 | – | 61.9 | 29.2

CCC[N+]1(C)CCCC1.O=S(=O)([N-]S(=O)(=O)C(F)(F)F)C(F)(F)F + CCCCCC[N+]1(C)CCCC1.O=S(=O)([N-]S(=O)(=O)C(F)(F)F)C(F)(F)F
x2 = 0
Settings | electrical conductivity [S/m] | viscosity [mPa·s]
293.15 K | 0.32 | –
313.15 K | 0.678 | 34.4
333.15 K | 1.18 | 18.8

CCC[N+]1(C)CCCC1.O=S(=O)([N-]S(=O)(=O)C(F)(F)F)C(F)(F)F + CCCC[N+]1(C)CCCC1.O=S(=O)([N-]S(=O)(=O)C(F)(F)F)C(F)(F)F
Settings | electrical conductivity, 293.15 K [S/m] | electrical conductivity, 313.15 K [S/m] | electrical conductivity, 333.15 K [S/m] | electrical conductivity, 353.15 K [S/m] | viscosity, 293.15 K [mPa·s] | viscosity, 313.15 K [mPa·s] | viscosity, 333.15 K [mPa·s] | viscosity, 353.15 K [mPa·s]
x2 = 0 | 0.32 | 0.678 | – | 1.76 | – | 34.4 | – | 11.6
x2 = 0.25 | – | 0.509 | 0.893 | 1.39 | – | 35.9 | 19.2 | 11.8
x2 = 0.5 | 0.298 | 0.61 | 1.03 | – | 87 | 37.9 | 20 | –
x2 = 0.75 | 0.261 | 0.569 | – | 1.57 | 92 | 39.5 | – | 12.5

CCC[N+]1(C)CCCC1.O=S(=O)([N-]S(=O)(=O)C(F)(F)F)C(F)(F)F + CCC[N+]1(C)CCCC1.N#C[N-]C#N
x2 = 0
Settings | electrical conductivity [S/m] | viscosity [mPa·s]
293.15 K | 0.32 | –
333.15 K | 1.18 | 18.8

CCCCCCCCCCCCCC[P+](CCCCCC)(CCCCCC)CCCCCC.O=S(=O)([N-]S(=O)(=O)C(F)(F)F)C(F)(F)F + CCC[N+]1(C)CCCC1.O=S(=O)([N-]S(=O)(=O)C(F)(F)F)C(F)(F)F
x1 = 1
Settings | electrical conductivity [S/m] | viscosity [mPa·s]
293.15 K | 0.0072 | –
313.15 K | 0.0216 | 150
333.15 K | 0.0473 | 63
353.15 K | 0.0913 | 31.1

CCCCCC[N+]1(C)CCCC1.O=S(=O)([N-]S(=O)(=O)C(F)(F)F)C(F)(F)F + CCC[N+]1(C)CCCC1.O=S(=O)([N-]S(=O)(=O)C(F)(F)F)C(F)(F)F
Settings | electrical conductivity, 293.15 K [S/m] | electrical conductivity, 313.15 K [S/m] | electrical conductivity, 333.15 K [S/m] | electrical conductivity, 353.15 K [S/m] | viscosity, 293.15 K [mPa·s] | viscosity, 313.15 K [mPa·s] | viscosity, 333.15 K [mPa·s] | viscosity, 353.15 K [mPa·s]
x1 = 0.25 | 0.268 | – | 1.02 | 1.54 | 89 | – | 20.6 | 12.6
x1 = 0.5 | 0.185 | 0.417 | 0.766 | – | 102 | 42.9 | 22.2 | –
x1 = 0.75 | 0.111 | 0.251 | 0.463 | 0.724 | 116 | 47.3 | 23.8 | 13.9
x1 = 1 | 0.118 | 0.272 | 0.525 | 0.86 | – | 52.7 | 25.9 | 14.9

CCCC[N+]1(C)CCCC1.O=S(=O)([N-]S(=O)(=O)C(F)(F)F)C(F)(F)F + CCC[N+]1(C)CCCC1.O=S(=O)([N-]S(=O)(=O)C(F)(F)F)C(F)(F)F
x1 = 1
Settings | electrical conductivity [S/m] | viscosity [mPa·s]
293.15 K | 0.222 | –
313.15 K | 0.471 | 42
333.15 K | 0.827 | 21.7
353.15 K | 1.23 | 12.9

CCC[N+]1(C)CCCC1.N#C[N-]C#N + CCC[N+]1(C)CCCC1.O=S(=O)([N-]S(=O)(=O)C(F)(F)F)C(F)(F)F
Settings | electrical conductivity, 293.15 K [S/m] | electrical conductivity, 313.15 K [S/m] | electrical conductivity, 333.15 K [S/m] | viscosity, 293.15 K [mPa·s] | viscosity, 313.15 K [mPa·s] | viscosity, 333.15 K [mPa·s] | viscosity, 353.15 K [mPa·s]
x1 = 0.25 | 0.44 | 0.842 | – | 63.1 | 29.7 | – | 10.4
x1 = 0.5 | 0.733 | 1.34 | 2.16 | 51 | 25.3 | 14.8 | 9.58
x1 = 0.75 | 0.982 | 1.75 | – | 44.9 | 21.6 | – | 8.66
x1 = 1 | 1.57 | 2.67 | 4.44 | – | 18.6 | 11.7 | 7.95

CC[n+]1ccn(C)c1.O=S(=O)([N-]S(=O)(=O)C(F)(F)F)C(F)(F)F + CCC[N+]1(C)CCCC1.O=S(=O)([N-]S(=O)(=O)C(F)(F)F)C(F)(F)F
x1 = 1
Settings | electrical conductivity [S/m] | viscosity [mPa·s]
293.15 K | 0.752 | –
313.15 K | 1.35 | 19.9
333.15 K | 2.1 | 12
353.15 K | 3.05 | 7.97

CCC[N+]1(C)CCCC1.O=S(=O)([N-]S(=O)(=O)C(F)(F)F)C(F)(F)F + CC[n+]1ccn(C)c1.O=S(=O)([N-]S(=O)(=O)C(F)(F)F)C(F)(F)F
Settings | electrical conductivity, 293.15 K [S/m] | electrical conductivity, 313.15 K [S/m] | electrical conductivity, 333.15 K [S/m] | electrical conductivity, 353.15 K [S/m] | viscosity, 293.15 K [mPa·s] | viscosity, 313.15 K [mPa·s] | viscosity, 333.15 K [mPa·s] | viscosity, 353.15 K [mPa·s]
x2 = 0 | 0.32 | 0.678 | – | – | – | 34.4 | – | –
x2 = 0.25 | 0.408 | 0.801 | 1.34 | 2 | 63.6 | 29.4 | 16.6 | 10.5
x2 = 0.5 | – | 0.985 | 1.62 | 2.37 | – | 25.8 | 14.9 | 9.57
x2 = 0.75 | 0.633 | 1.16 | 1.85 | 2.66 | 45 | 22.6 | 13.3 | 8.77

Source: a compilation of properties of binary mixtures (doi:10.1021/jp3012602)
